One compound from patent US20250319052A1, “TREATMENT WITH HIGHLY PURIFIED EICOSAPENT AENOIC ACID AS FREE FATTY ACID IMPROVES INFLAMMATION, AFFECTS COLONIC DIFFERENTIATION MARKERS AND MICROBIOTA IN PATIENTS WITH ULCERATIVE COLITIS” (KD SWISS GMBH, priority 2019, published 2025) can be followed below.

SMILES strings stand for the structures.

The nature of the data set: Membrane fatty acid analysis in red blood cells (GC-MS) of UC patients given EPA-FFA. The format is in vivo, human. The method, then: A study will be conducted with patients having long-standing UC. Specifically, about 20 long-standing UC patients in stable clinical remission (SCCAI=0) and with fecal calprotectin (FC)>150 μg/g measured in stools are recruited and treated with 2 g/day of EPA-FFA for 90 days. Biopsies and biological samples are collected at the entry (TO) and at the end of the study (T3). Compliance is evaluated by EPA incorporation into red blood cell membranes. Protein levels of Jagged1, Hes1, STAT3, phospho-STAT3 and KLF-4 are determined by western blotting. IL-22, IL-10 and SOCS3 mRNA levels are analyzed by qRT-PCR. Goblet cells are stained by Alcian blue. Microbiota analyses are performed on fecal and biopsies DNA samples sequencing the V3-V4 region of the bacterial 16S rRNA gene. As a reference, a healthy adult population is used. Endoscopic and histologic disease activities are measured by Mayo and Geboes scores respectively.
Since EPA can be converted into the m-3 PUFA docosahexaenoic acid (DHA) in vivo through docosapentaenoic acid (DPA) (19), the overall ω-3 PUFAs content is also measured including EPA, DPA and DHA, in the patients.
Eligible patients are asymptomatic subjects aged 18-70 years with long-standing (≥8 years) UC, in stable clinical remission (simple clinical colitis activity index; SCCAI=0), and FC levels higher than 150 μg/g (53). Exclusion criteria are (1) recent use of steroids (<2 months) or other experimental drugs (<3 months); (2) concomitant use of anticoagulants; (3) probiotic use; (4) pregnancy or breast-feeding; (5) known or suspected hypersensitivity to eicosapentaenoic acid or ω-3 PUF As; and (6) severe co-morbidities. […] Adherence to EPA-FFA supplementation is evaluated both by capsule counting and assessing EPA incorporation into red blood cell (RBC) membranes. […]
Membrane fatty acids content is measured in RBCs. […] Extracted fatty acid methyl-esters are then analyzed by gas-chromatography mass-spectrometry (GC-MS). Fatty acid levels are expressed as relative percentages of total fatty acids.

Where [1] appears, read: short-term EPA-FFA supplementation, long-standing UC patients.

For `CC/C=C\C/C=C\C/C=C\C/C=C\C/C=C\CCCC(=O)O` [EPA-FFA, eicosapentaenoic acid], the “EPA in RBC-purified membranes” value (UC patients, 2 g/day EPA-FFA for 90 days) is reported as “significant increase”. Moreover, under setting [1], the “EPA and overall ω-3 PUFAs content (EPA, DPA and DHA) into RBCs” value is recorded as “increase”; the “patients who incorporated EPA into RBCs” value was 17/19.
